Source: patent US20240270821A1, “GIP/GLP1/GCG TRI-RECEPTOR AGONISTS AND USES THEREOF” (priority 2023, published 2024)
Like-named read-outs stand apart in the source and are kept apart here. Starred links: 1 amine or outer side, 2 acyl side, 3 side chain; linkers in the order of their positions; H or OH if unused. Non-standard residues stand in square brackets, D forms with d. Residues, ends and D or L forms follow the SMILES beside them. Groups on a side chain read outwards from the residue. No end group written: not given here. *: point of attachment. C20 diacid = O=C(O)CCCCCCCCCCCCCCCCCCC(=O)*; C18 diacid = O=C(O)CCCCCCCCCCCCCCCCC(=O)*; αMePhe(2-F) = C[C@](N)(Cc1ccccc1F)C(=O)O; γGlu = O=C(O)[C@H](CCC(=O)[*:2])N[*:1]; αMe4Pal = C[C@](N)(Cc1ccncc1)C(=O)O; αMeY = C[C@](N)(Cc1ccc(O)cc1)C(=O)O; αMeF = C[C@](N)(Cc1ccccc1)C(=O)O; 4Pal = N[C@@H](Cc1ccncc1)C(=O)O; αMeL = CC(C)C[C@](C)(N)C(=O)O; αMeS = C[C@](N)(CO)C(=O)O; Orn = NCCC[C@H](N)C(=O)O; Dab = NCC[C@H](N)C(=O)O; Dap = NC[C@H](N)C(=O)O; AEEA = NCCOCCOCC(=O)O; Aib = CC(C)(N)C(=O)O

What was measured:
Type in all cases: cell-based
[1] = target: T1, hGLP-1R (Homo sapiens, UniProt P43220); assay: Functional cAMP activity in the presence of 1% HSA; conditions: read-out: cAMP Rel EC50, hGLP-1R
[2] = target: human GcgR (Homo sapiens, UniProt P47871); assay: Functional cAMP activity in the presence of 1% HSA; conditions: read-out: cAMP Rel EC50, hGcgR
[3] = target: T2, hGIPR (Homo sapiens, UniProt P48546); assay: Functional cAMP activity in the presence of 1% HSA; conditions: read-out: cAMP Rel EC50, hGIPR
T2 sequence (P48546 22-466): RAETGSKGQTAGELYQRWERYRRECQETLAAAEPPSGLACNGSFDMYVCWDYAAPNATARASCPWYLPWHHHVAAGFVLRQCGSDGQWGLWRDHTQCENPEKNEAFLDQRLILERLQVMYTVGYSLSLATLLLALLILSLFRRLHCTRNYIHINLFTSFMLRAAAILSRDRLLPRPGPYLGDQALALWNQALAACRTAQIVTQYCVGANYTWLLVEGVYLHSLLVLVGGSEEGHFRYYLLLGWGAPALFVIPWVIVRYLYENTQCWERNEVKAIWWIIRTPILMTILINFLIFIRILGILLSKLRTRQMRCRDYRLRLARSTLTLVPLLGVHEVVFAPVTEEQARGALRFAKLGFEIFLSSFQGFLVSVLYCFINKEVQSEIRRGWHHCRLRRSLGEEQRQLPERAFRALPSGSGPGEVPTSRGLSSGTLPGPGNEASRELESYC

[4] = target: T1, hGLP-1R; assay: Functional cAMP activation in the presence of 0.1% casein (no HSA); conditions: read-out: Relative cAMP EC50, hGLP-1R;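 as to Relative cAMP EC50, hGIPR: intracellular cAMP rise after 30 min at 37 °C read by HTRF against a standard curve, scaled between buffer alone (0%) and top control ligand concentration (100%), four-parameter fit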;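 as to Relative cAMP EC50, hGLP-1R: intracellular cAMP rise after 30 min at 37 °C read by HTRF, normalized between buffer only (0%) and maximal control ligand (100%), four-parameter variable-slope fit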;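 as to Relative cAMP EC50, hGcgR: intracellular cAMP rise after 30 min at 37 °C, read by HTRF against a cAMP standard curve, scaled from buffer only (0%) to maximal control ligand response (100%)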
[5] = target: hGcgR (Homo sapiens, UniProt P47871); assay: as above; conditions: read-out: Relative cAMP EC50, hGcgR;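 also: intracellular cAMP rise after 30 min at 37 °C, read by HTRF against a cAMP standard curve, scaled from buffer only (0%) to maximal control ligand response (100%)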
[6] = target: T2, hGIPR; assay: as above; conditions: read-out: Relative cAMP EC50, hGIPR
[7] = in the presence of 0.1% casein (no HSA), geometric mean
[8] = HEK-293 clonal cell line, 1% HSA, geometric mean of relative EC50
[9] = in the presence of 0.1% casein (no HSA), geometric mean of relative EC50

human GcgR, sequence (P47871 26-477): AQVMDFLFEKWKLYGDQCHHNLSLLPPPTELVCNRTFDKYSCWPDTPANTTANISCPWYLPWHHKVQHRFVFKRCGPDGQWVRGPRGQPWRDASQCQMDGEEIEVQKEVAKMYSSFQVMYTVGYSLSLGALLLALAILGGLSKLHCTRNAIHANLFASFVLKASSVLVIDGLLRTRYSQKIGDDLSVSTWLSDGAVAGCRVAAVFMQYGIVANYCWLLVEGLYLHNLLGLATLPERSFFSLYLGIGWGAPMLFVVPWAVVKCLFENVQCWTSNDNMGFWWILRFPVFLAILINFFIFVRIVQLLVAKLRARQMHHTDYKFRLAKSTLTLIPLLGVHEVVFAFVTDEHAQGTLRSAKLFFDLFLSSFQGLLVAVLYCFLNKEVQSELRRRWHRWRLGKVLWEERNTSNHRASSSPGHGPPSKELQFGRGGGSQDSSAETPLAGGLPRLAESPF
hGcgR, sequence (P47871 26-477): as above
T1 sequence (P43220 24-463): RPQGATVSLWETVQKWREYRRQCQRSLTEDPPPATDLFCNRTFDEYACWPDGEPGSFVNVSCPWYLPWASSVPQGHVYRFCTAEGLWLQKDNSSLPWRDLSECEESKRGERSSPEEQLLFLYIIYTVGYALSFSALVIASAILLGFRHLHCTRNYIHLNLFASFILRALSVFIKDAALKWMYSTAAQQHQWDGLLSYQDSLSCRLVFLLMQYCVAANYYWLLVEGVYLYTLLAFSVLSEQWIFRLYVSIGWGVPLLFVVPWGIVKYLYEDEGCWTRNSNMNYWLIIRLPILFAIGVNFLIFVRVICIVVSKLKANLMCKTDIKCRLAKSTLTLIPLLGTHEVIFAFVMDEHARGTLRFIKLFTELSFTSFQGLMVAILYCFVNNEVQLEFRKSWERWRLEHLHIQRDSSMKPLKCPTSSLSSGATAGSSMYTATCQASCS

Row | Compound | EC50 [1] [nM] | EC50 [2] [nM] | EC50 [3] [nM] | EC50 [4, 7] [nM] | EC50 [5, 7] [nM] | EC50 [6, 7] [nM] | EC50 [4] [nM] | EC50 [5] [nM] | EC50 [6] [nM] | EC50 [1, 8] [nM] | EC50 [2, 8] [nM] | EC50 [3, 8] [nM] | EC50 [4, 9] [nM] | EC50 [5, 9] [nM] | EC50 [6, 9] [nM]
1 | CC[C@H](C)[C@H](NC(=O)[C@H](Cc1ccccc1)NC(=O)[C@H](C)NC(=O)[C@H](CCCNC(=N)N)NC(=O)[C@H](CCC(N)=O)NC(=O)[C@H](C)NC(=O)[C@H](CCCCNC(=O)COCCOCCNC(=O)CC[C@H](NC(=O)CCCCCCCCCCCCCCCCCCC(=O)O)C(=O)O)NC(=O)[C@H](CCCCN)NC(=O)[C@H](CC(=O)O)NC(=O)[C@H](CC(C)C)NC(=O)[C@](C)(CC(C)C)NC(=O)[C@@H](NC(=O)[C@H](CO)NC(=O)[C@H](Cc1ccc(O)cc1)NC(=O)[C@H](CC(=O)O)NC(=O)[C@H](CO)NC(=O)[C@@H](NC(=O)[C@H](Cc1ccccc1)NC(=O)[C@@H](NC(=O)CNC(=O)[C@H](CCC(N)=O)NC(=O)C(C)(C)NC(=O)[C@@H](N)Cc1ccc(O)cc1)[C@@H](C)O)[C@@H](C)O)[C@@H](C)CC)C(=O)N[C@@H](CCC(=O)O)C(=O)N[C@@H](Cc1ccc(O)cc1)C(=O)N[C@@H](CC(C)C)C(=O)N[C@@H](CC(C)C)C(=O)N[C@@H](CCC(=O)O)C(=O)NCC(=O)NCC(=O)N1CCC[C@H]1C(=O)N[C@@H](CO)C(=O)N[C@@H](CO)C(=O)NCC(=O)N[C@@H](CCC(=O)O)C(=O)N1CCC[C@H]1C(=O)N1CCC[C@H]1C(=O)N1CCC[C@H]1C(=O)N[C@@H](CO)C(=O)NCC(N)=O [Example 313] (H-Y[Aib]QGTFTSDYSI[αMeL]LDKK([AEEA-γGlu-C20 diacid])AQRAFIEYLLEGGPSSGEPPPSG-NH2) | 135 | 3290 | 86.4 | 0.304 | 4.11 | 0.49 | – | – | – | – | – | – | – | – | –
2 | CC[C@H](C)[C@H](NC(=O)[C@H](Cc1ccccc1)NC(=O)[C@H](CCCN)NC(=O)C(C)(C)NC(=O)[C@H](CCC(N)=O)NC(=O)[C@H](C)NC(=O)[C@H](CCCCNC(=O)CC[C@H](NC(=O)CC[C@H](NC(=O)CCCCCCCCCCCCCCCCC(=O)O)C(=O)O)C(=O)O)NC(=O)[C@H](CCCN)NC(=O)[C@H](CC(=O)O)NC(=O)[C@H](CC(C)C)NC(=O)[C@](C)(CC(C)C)NC(=O)[C@@H](NC(=O)[C@H](CO)NC(=O)[C@H](Cc1ccncc1)NC(=O)[C@H](CC(=O)O)NC(=O)[C@H](CO)NC(=O)[C@@H](NC(=O)[C@](C)(Cc1ccccc1F)NC(=O)[C@@H](NC(=O)CNC(=O)[C@H](CCC(N)=O)NC(=O)C(C)(C)NC(=O)[C@@H](N)Cc1ccc(O)cc1)[C@@H](C)O)[C@@H](C)O)[C@@H](C)CC)C(=O)N[C@H](CCC(=O)O)C(=O)N[C@@](C)(Cc1ccc(O)cc1)C(=O)N[C@@H](CC(C)C)C(=O)N[C@@H](CC(C)C)C(=O)N[C@@H](CCC(=O)O)C(=O)NCC(=O)NCC(=O)N1CCC[C@H]1C(=O)N[C@@H](CO)C(=O)N[C@@H](CO)C(=O)NCC(=O)N[C@@H](CCC(=O)O)C(=O)N1CCC[C@H]1C(=O)N1CCC[C@H]1C(=O)N1CCC[C@H]1C(=O)N[C@@H](CO)C(N)=O [Example 371] | 47.4 | 463 | 1.47 | 0.327 | 4.46 | 0.0128 | – | – | – | – | – | – | – | – | –
3 | H-Y[Aib]QGTFTSD[4Pal]S[Orn][αMeL]LDKK([AEEA-AEEA-γGlu-C18 diacid])AQ[αMe4Pal]AFIEYLIE[Aib]GPSSGAPPPSGS-NH2 [Example 814] | 649 | 554 | 27.8 | 3.76 | 3.92 | 0.337 | – | – | – | – | – | – | – | – | –
4 | H-Y[Aib]QGTFTSDFS[Dab][αMeL]LDKK([AEEA-γGlu-C18 diacid])AQ[Aib]AFIEYLIE[Aib]GPSSGAPPPSGS-NH2 [Example 799] | 179 | 574 | 18.4 | 0.462 | 1.64 | 0.0668 | – | – | – | – | – | – | – | – | –
5 | H-Y[Aib]QGT[αMePhe(2-F)]TSD[4Pal][αMeS]I[αMeL]LD[Orn]K([γGlu-γGlu-C18 diacid])AQ[Aib][Orn]FI[dE]YLSEGGPSSGEPPPSGTE-NH2 [Example 530] | 437 | 1280 | 63.7 | – | – | – | 4.91 | 17.1 | 0.874 | – | – | – | – | – | –
6 | Y[Aib]QGTFTSD[4Pal]SQ[αMeL]LD[Orn]K([γGlu-γGlu-C18 diacid])AQ[αMe4Pal]AFIEYLIAGGPSSGAPPPSGSEE-NH2 [Example 1031] | 152 | 1200 | 17.3 | 1.15 | 6.98 | 0.146 | – | – | – | – | – | – | – | – | –
7 | Y[Aib]QGTFTSD[4Pal]SQ[αMeL]LD[Orn]K([AEEA-γGlu-C18 diacid])AQ[αMe4Pal]QFIE[αMeY]LIE[Aib]GPSSGEPPPSGSEE-NH2 [Example 1098] | 184 | 994 | 31.2 | 1.22 | 6.2 | 0.201 | – | – | – | – | – | – | – | – | –
8 | H-Y[Aib]QGT[αMeF]TSD[4Pal][αMeS]I[αMeL]LD[Orn]K([AEEA-γGlu-C18 diacid])AQ[αMe4Pal]EFI[dE][αMeY]LIEGGPSSGAPPPSGE-NH2 [Example 1164] | 63.5 | 359 | 1.17 | 0.495 | 2.83 | 0.0104 | – | – | – | – | – | – | – | – | –
9 | H-Y[Aib]QGTFTSD[4Pal]S[Orn][αMeL]LDKK([γGlu-γGlu-C18 diacid])AQ[αMe4Pal]AFIEYLIAGGPSSGEPPPSGTEE-NH2 [Example 981] | 330 | 477 | 21.1 | 4.45 | 3.7 | 0.243 | – | – | – | – | – | – | – | – | –
10 | H-Y[Aib]QGT[αMeF]TSD[4Pal][αMeS]I[αMeL]LD[Orn]K([γGlu-γGlu-C18 diacid])AQ[αMe4Pal]EFI[dE][αMeY]LIEGGPSSGAPPPSGSE-NH2 [Example 1172] | 45.5 | 303 | 0.7 | 0.44 | 2.52 | 0.00886 | – | – | – | – | – | – | – | – | –
11 | H-Y[Aib]QGTFTSDFS[Dap][αMeL]LDKK([γGlu-γGlu-C18 diacid])AQ[Aib]AFIEYLLE[Aib]GPSSGAPPPSGS-NH2 [Example 203] | 532 | 1160 | 19 | 4.72 | 6.92 | 0.125 | – | – | – | – | – | – | – | – | –
12 | H-Y[Aib]QGT[αMePhe(2-F)]TSD[4Pal]SI[αMeL]LDKK([γGlu-γGlu-C18 diacid])AQ[Aib][Orn]FIEYLTEGGPSSGEPPPSGSEE-NH2 [Example 638] | – | – | – | – | – | – | – | – | – | 36 | 1090 | 2.39 | 0.4 | 14 | 0.0354
13 | H-Y[Aib]QGTFTSD[4Pal]SK[αMeL]LDKK([AEEA-γGlu-C18 diacid])AQ[Aib]AFIEYLIE[Aib]GPSSGAPPPSGSEE-NH2 [Example 902] | 232 | 1360 | 28.5 | 2.58 | 15.9 | 0.19 | – | – | – | – | – | – | – | – | –
14 | Y[Aib]QGTFTSD[4Pal]SQ[αMeL]LDKK([γGlu-dE-dE-C18 diacid])AQ[αMe4Pal]AFIEYLIE[Aib]GPSSGAPPPSGSE-NH2 [Example 926] | 600 | 1380 | 13.5 | 7.71 | 13.2 | 0.166 | – | – | – | – | – | – | – | – | –
15 | H-Y[Aib]QGT[αMeF]TSD[4Pal][αMeS]I[αMeL]LD[Orn]K([AEEA-γGlu-C18 diacid])AQ[αMe4Pal]EFI[dE][αMeY]LIEGGPSSGEPPPSGSE-NH2 [Example 1167] | 89.2 | 274 | 1.22 | 0.636 | 2.16 | 0.011 | – | – | – | – | – | – | – | – | –
16 | H-Y[Aib]QGT[αMePhe(2-F)]TSD[4Pal][αMeS]I[αMeL]LD[Orn]K([AEEA-γGlu-C18 diacid])AQ[αMe4Pal]EFI[dE][αMeY]LVEGGPSSGAPPPGGE-NH2 [Example 1154] | 44.5 | 320 | 0.954 | 0.344 | 6.42 | 0.00879 | – | – | – | – | – | – | – | – | –
